Source: ChEMBL document CHEMBL1142978, “Probing the anticancer activity of nucleoside analogues: a QSAR model approach using an internally consistent training set” (J Med Chem, 2007)

Test: Cytotoxicity against mouse L1210/0 cells after 48 hrs
Assay type: cell-based
Conditions: Mus musculus, L1210/0, 48 h

Point of comparison: `[N-]=[N+]=NCc1cn([C@H]2C[C@H](O)[C@@H](CO)O2)c(=O)[nH]c1=O`, IC50 124 µM. Against it:
- C[C@H](O)C1CC(CCn2nnc3c(N)ncnc32)C1(C)C (stereo partly drawn) — higher, > 200 µM
- Nc1nc(N)c2ncn([C@H]3CCCC[C@H]3CO)c2n1 — higher, > 200 µM
- CCOc1ncnc2c1ncn2C[C@@H]1C[C@H](CO)c2ccccc21 — higher, > 200 µM
- Nc1ncnc2c1ncn2C[C@@H]1C[C@H](O)c2ccccc21 — higher, > 200 µM
- Nc1ncnc2c1nnn2[C@@H]1C[C@H](CO)[C@@H](CO)[C@H]1CO — higher, > 200 µM
- OC[C@H]1CCC[C@@H]1n1cnc2c(Cl)ncnc21 — higher, > 200 µM
- CCCNc1ncnc2c1ncn2C[C@@H]1C[C@H](CO)c2ccccc21 — higher, > 200 µM
- C[C@H](O)C1CC(Cn2nnc3c(N)ncnc32)C1(C)C (stereo partly drawn) — higher, > 200 µM
- COc1ccccc1-c1ncnc2c1ncn2C[C@@H]1C[C@H](O)c2ccccc21 — higher, > 200 µM
- Nc1ncnc2c1nnn2C1C[C@H](CO)[C@@H](CO)[C@@H]1CO (stereo partly drawn) — higher, > 200 µM
- O=C(CI)NCc1cn([C@H]2C[C@H](O)[C@@H](CO)O2)c(=O)[nH]c1=O — within 1.5-fold, 107 µM
- O=c1[nH]c(=O)n(C[C@@H]2C[C@H](O)c3ccccc32)cc1Br — higher, > 200 µM
- OC[C@@H]1[C@@H]2COC[C@H]2C[C@H]1n1cnc2c(Cl)ncnc21 — higher, > 200 µM
- CC1(C)[C@@H](CO)CC[C@@]1(C)Cn1nnc2c(N)ncnc21 — higher, > 200 µM
- Oc1ncnc2c1ncn2C[C@@H]1C[C@H](O)c2ccccc21 — higher, > 200 µM
- CC(C)Nc1ncnc2c1ncn2C1C[C@@H](CO)[C@@H](CO)C1 (stereo partly drawn) — higher, > 200 µM
- OC[C@@H]1C[C@H](Cn2cnc3c(NC4CCC4)ncnc32)c2c(-c3ccccc3)nnc(-c3ccccc3)c21 — within 1.5-fold, 90.8 µM
- Nc1ncnc2c1nnn2C[C@H]1CCC[C@H]1CO — higher, > 200 µM
- C#Cc1cn([C@H]2C[C@H](O)[C@@H](CO)O2)c(=O)[nH]c1=O — 340-fold lower, 0.36 µM
- C[C@H](O)C1CC(Cn2cnc3c(N)ncnc32)C1(C)C (stereo partly drawn) — higher, > 200 µM
- COc1ncnc2c1ncn2C[C@@H]1C[C@H](O)c2ccccc21 — higher, > 200 µM
- CC1(C)[C@@H](Cn2cnc3c(O)nc(N)nc32)CC[C@@]1(C)CO — higher, > 200 µM
- Nc1ncnc2c1ncn2C[C@@H]1C[C@H](CO)c2ccccc21 — higher, > 200 µM
- O=c1[nH]cnc2c1nnn2C1C[C@H](CO)[C@@H](CO)[C@@H]1CO (stereo partly drawn) — higher, > 200 µM
- Nc1nc(N)c2nnn([C@H]3CCCC[C@H]3CO)c2n1 — higher, > 200 µM
- CC1(C)[C@@H](Cn2cnc3c(N)nc(N)nc32)CC[C@@]1(C)CO — higher, > 200 µM
- COc1ncnc2c1ncn2C[C@@H]1C[C@H](CO)c2ccccc21 — higher, > 200 µM
- C[C@H](O)C1CC(CCn2cnc3c(N)ncnc32)C1(C)C (stereo partly drawn) — higher, > 200 µM
- CC1(C)[C@@H](CO)CC[C@@]1(C)Cn1cnc2c(N)ncnc21 — higher, > 200 µM
- OC[C@@H]1CC(n2cnc3c(NC4CC4)ncnc32)C[C@@H]1CO (stereo partly drawn) — higher, > 200 µM
- Nc1ncnc2c1ncn2[C@@H]1C[C@@H]2COC[C@H]2[C@H]1CO — higher, > 200 µM
- Nc1ncnc2c1ncn2[C@@H]1CCC[C@H]1CO — higher, > 200 µM
- OC[C@@H]1C[C@H](Cn2cnc3c(Cl)ncnc32)c2c(-c3ccccc3)nnc(-c3ccccc3)c21 — higher, > 200 µM
- OC[C@@H]1C[C@H](Cn2cnc3c(NC4CC4)ncnc32)c2c(-c3ccccc3)nnc(-c3ccccc3)c21 — higher, > 200 µM
- Nc1ncnc2c1ncn2C1C[C@@H](CO)[C@@H](CO)C1 (stereo partly drawn) — higher, > 200 µM
- O[C@H]1C[C@@H](Cn2cnc3c(-c4ccccc4)ncnc32)c2ccccc21 — higher, > 200 µM
- Nc1nc(Cl)c2ncn([C@H]3CCCC[C@H]3CO)c2n1 — higher, > 200 µM
- CC1(C)[C@@H](Cn2ccc(=O)[nH]c2=O)CC[C@@]1(C)CO — higher, > 200 µM
- O[C@H]1C[C@@H](Cn2cnc3c(Cl)ncnc32)c2ccccc21 — higher, > 200 µM
- Nc1ncnc2c1ncn2C1CC(O)C(/C=N/O)O1 (stereo not drawn) — 7.1-fold lower, 17.4 µM
- OC[C@H]1C[C@@H](Cn2cnc3c(NC4CC4)ncnc32)c2ccccc21 — higher, > 200 µM
- CC1(C)[C@@H](Cn2nnc3c(N)nc(N)nc32)CC[C@@]1(C)CO — higher, > 200 µM
